Data: patent US10830762B2, “Compositions and methods for inducing conformational changes in cereblon and other E3 ubiquitin ligases” (Celgene Corporation, priority 2015, dated 2020)

Key:
[1] = system: TMD8 (ABC) or Karpas 422 (GCB) cells; assay: 3H-thymidine incorporation proliferation assay with lenalidomide co-treatment; assay type: cell-based; details: co-treatment with 10 μM lenalidomide; 3H-thymidine incorporation
[2] = system: H929 multiple myeloma cell line; assay: Apoptosis in multiple myeloma cell line H929; assay type: cell-based; details: 0.01 nM to 1000 nM; assessed 24 hrs later
Description: The multiple myeloma cell line, H929, was cultured and treated with Compound C or other CMA analogs at various concentrations from 0.01 nM to 1000 nM. Apoptosis was assessed at 24 hrs. later.

[3] = system: panel of tumor cell lines (B-lymphoma, breast, CNS, colon, kidney, leukemia, lung, melanoma, multiple myeloma, ovary, prostate); assay: Potency across a panel of tumor cell lines; assay type: cell-based
Description: The potency of Compound C was assessed across a panel of tumor cell lines, including B-lymphoma, breast, CNS, colon, kidney, leukemia, lung, melanoma, multiple myeloma, ovary and prostate.

[4] = system: DF15 / DF15R myeloma cells; assay: Cell proliferation assay of DF15, DF15R and DF15R re-expressing CRBN treated with Compound C; assay type: cell-based
Description: (§1) Immunoblot analysis of extracts prepared from U266 multiple myeloma cells and pre-incubated with vehicle DMSO (D), Pomalidomide (Pom) or Compound C at the indicated concentrations, and bound to thalidomide analog affinity beads, washed and eluted with SDS buffer as previously described (Ito et al, 2010; Lopez-Girona et al, 2012). Samples were subjected to SDS-PAGE and immunoblot analysis using anti-CRBN 65-76 (1:10,000 dilution; Red signal) and anti-DDB1 (Cell Signaling) (1:2,000 dilution; Green signal). […] Cell proliferation assay of DF15 (sensitive), DF15R (resistant; CRBNnull) cells treated with a dose response of Compound C. Assays were done in triplicate and error bars represent s.d. Data for each cell line was normalized to treatment with vehicle (DMSO). […] Cell proliferation assay of DF15 (sensitive), DF15R (resistant; CRBNnull), DF15R-hCRBNWT (human CRBN), DF15R-RFP cells treated with a dose response of Compound C. […] Assays were done in triplicate and error bars represent s.d. Data for each cell line was normalized to treatment with vehicle (DMSO).

[5] = system: MDA-MB-231 breast cancer cells; assay: Growth inhibition and pro-apoptotic activity in breast cancer cells treated with CRBN siRNA; assay type: cell-based; details: CRBN siRNA vs negative control
Description: Breast cancer cells (MDA-MB-231) were treated with CRBN siRNA or a negative control. Compound C was added at a concentration between 0 to 100 μM, and CRBN levels were assessed at 48 hours post treatment.
Compound C-mediated growth inhibition and pro-apoptotic activity were also assessed.

[6] = biological target: T1, human GSPT1 (Homo sapiens, UniProt P15170); assay: Compound-induced GSPT1 degradation by Western blot in 293T HEK cells; assay type: cell-based; details: full-length and truncated (lacking N-terminal 138 residues) GSPT1
T1 construct: expressed in transfected cells; host or cells: 293T HEK cells
Text: (§2) FIG. 28A illustrates a full-length human GSPT1 and a truncated mutant form, which lacks the N-terminal 138 amino acid residues. […] Thus, the truncated mutant human GSPT1 maintained the functionality of the full-length protein and can be used in studies below.
(§3) To determine the critical region in the human GSPT1 that contributes to the Compound C-induced degradation, a plethora of chimeric constructs containing various domains of human GSPT1 and yeast SUP35 were generated (FIG. 30A). These recombinant proteins were tested for Compound C-induced degradation by Western blot (FIGS. 30B-30D). As the results shown, a 32-amino acid fragment in the C-terminus of human GSPT1 (residues 562-593) is critical for Compound C-induced degradation.
(§4) To further map the essential amino acid residues in this 32-amino acid fragment of human GSPT1, various point mutations within the fragment were generated and tested for Compound C-induced degradation of GSPT1 and Compound C-induced interaction between CRBN and GSPT1. […] Among these homologues, only the yeast SUP35 is resistant to Compound C. […] Other mutations, […].

[7] = biological target: T2, human GSPT1 (Homo sapiens, UniProt P15170, G437N); assay: as above; assay type: cell-based; details: GSPT1 G575N mutation
T2 construct: expressed in transfected cells; host or cells: 293T HEK cells
Text: as §2, §3, §4

[8] = biological target: yeast homologue SUP35 (Saccharomyces cerevisiae, UniProt P05453); assay: Compound-induced degradation of yeast homologue SUP35; assay type: cell-based; details: yeast SUP35, in contrast to human GSPT1
[9] = system: CRBN-GSPT1; assay: Compound-induced interaction (in vitro binding) of CRBN with GSPT1; set-up: species or system human
Text: as §2, §4

[10] = system: human GSPT1 (G575N mutation); assay: Growth inhibition and activation of ATF4 and apoptosis pathways with GSPT1 G575N mutation; assay type: cell-based
[11] = biological target: T3, IKZF1 (Homo sapiens, UniProt Q13422+Q96SW2); assay: IKZF1 degradation in HEK293T cells co-transfected with wild-type or mutant CRBN; assay type: cell-based
T3 construct: expressed in transfected cells; host or cells: HEK293T cells

[12] = biological target: T4, GSPT1 (Homo sapiens, UniProt P15170+Q96SW2); assay: GSPT1 degradation in HEK293T cells transfected with wild-type or mutant CRBN; assay type: cell-based; details: murine CRBN V377E
T4 construct: endogenous in cells; host or cells: HEK293T cells
Text: (§5) A key feature of immunomodulatory drug biology is the striking resistance observed in rodent species. This feature was historically a confounding factor in establishing the efficacy and safety risks associated with thalidomide. It was shown that, in contrast to human cereblon, murine cereblon is unable to rescue immunomodulatory drug sensitivity. Chamberlain et al., Nature structural & mole. biol. 2014, 21:803-809. It was proposed that the molecular basis for this would lie in two variable residues on the cereblon surface proximal to the tri-Tryp pocket, E377V and V388I. […] Kronke et al., Nature 2015, 523:183-188. Despite the potent effect seen on human cells, murine cells are resistant to the antiproliferative and pro-apoptotic effects of Compound C (data not shown). […] The dependence of GSPT1 degradation upon E377 can be rationalized by the crystal structure: the side chain of E377 mediates hydrogen bond interactions with the urea moiety of Compound C.

[13] = biological target: T5, GSPT1 (Homo sapiens, UniProt P15170+Q96SW2, E377V/V100A); assay: as above; assay type: cell-based; details: human CRBN E377V
T5 construct: endogenous in cells; host or cells: HEK293T cells
Text: as §5

[14] = biological target: T6, GSPT1 (Homo sapiens, UniProt P15170+Q96SW2, V100A); assay: as above; assay type: cell-based; details: human WT CRBN
T6 construct: endogenous in cells; host or cells: HEK293T cells
Text: as §5

[15] = biological target: T7, GSPT1 (Homo sapiens, UniProt P15170+Q96SW2, V100A/V388I); assay: as above; assay type: cell-based; details: human CRBN V388I
T7 construct: endogenous in cells; host or cells: HEK293T cells
Text: as §5

[16] = system: murine cells; assay: Antiproliferative and pro-apoptotic effects on murine cells; assay type: cell-based; details: murine cells (data not shown)
Text: as §5

[17] = biological target: CRBN (Homo sapiens, UniProt Q96SW2); assay: Thalidomide analog affinity bead competition assay in U266 cell extracts; assay type: binding; set-up: endogenous in cells; host or cells: U266 multiple myeloma cells (extract); details: competition with thalidomide analog affinity beads
Description: as §1
Coupling of thalidomide analog to FG-magnetic nanoparticle beads (Tamagawa Seiko Co. Tokyo, Japan) was carried out as described (Ito et al., Science, 2010. 327(5971):1345-50), and cell extract binding assays to these beads were performed with minor modifications. […]

With Cc1ccc(NC(=O)NCc2ccc3c(c2)CN(C2CCC(=O)NC2=O)C3=O)cc1Cl (stereo not drawn) [Compound C, 1-(3-chloro-4-methylphenyl)-3-((2-(2,6-dioxopiperidin-3-yl)-1-oxoisoindolin-5-yl)methyl)urea] the “anti-proliferative effects on co-treatment with lenalidomide” value [1] was “blocks anti-proliferative effects”, the early apoptosis [2] was “induced early apoptosis” and the “Therapeutic Index” value ([3]; across the cancer cell panel) was “overall low Therapeutic Index”. The “potency / activity in tumor cell lines” value ([3]; panel of tumor cell lines) was “potent across a panel of tumor lines”, the “CRBN dependence of anti-proliferative activity” value ([4]; DF15 (sensitive) vs DF15R (CRBN null)) was “CRBN is required for the anti-proliferative activity” and the “anti-proliferative activity after re-expression of human CRBN” value ([4]; DF15R-hCRBNWT) was “rescues Compound C anti-proliferative activity”. The “CRBN dependence of growth inhibition and pro-apoptotic activity” value [5] was “CRBN is required for both inhibition and pro-apoptotic activity”, the GSPT1 degradation [6] was “induced degradation of the full-length GSPT1 and the truncated form” and the GSPT1 degradation [7] was “blocked Compound C-induced degradation”. For the same molecule, the SUP35 degradation [8] was “did not exhibit Compound C-induced degradation”, the “interaction between CRBN and GSPT1” value ([9]; GSPT1 G575N mutation) was “blocked Compound C-induced interaction between CRBN and GSPT1” and the “interaction of CRBN with GSPT1” value ([9]; full-length and truncated GSPT1) was “induced interaction of CRBN with the full-length GSPT1 as well as the truncated GSPT1”. The “growth inhibition and downstream activation of ATF4 and apoptosis pathways” value [10] was “blocked Compound C-induced growth inhibition and Compound C-induced downstream activation of ATF4 and apoptosis pathways”, the IKZF1 degradation ([11]; human CRBN V388I) was “blocks the degradation of IKZF1” and the IKZF1 degradation ([11]; human WT CRBN) was “degradation of both IKZF1 and GSPT1”. For the same molecule, the GSPT1 degradation [12] was “restores GSPT1 degradation”, the GSPT1 degradation [13] was “blocks the degradation of GSPT1” and the GSPT1 degradation [14] was “degradation of both IKZF1 and GSPT1”. The GSPT1 degradation [15] was “maintained”, the “antiproliferative and pro-apoptotic effects” value [16] was “resistant” and the “binding to CRBN protein in MM cell extracts” value [17] was “binds CRBN protein”.
